Where a name gives a salt, the structure may show the parent alone.
What was measured:
[1] = tested on: phenylbenzoquinone-induced writhing; test: phenylbenzoquinone-induced writhing test in mice (analgesic activity); format: in vivo; conditions: ratio of activity relative to the parent NSAID; oral gavage 1 hour prior to i.p. phenylbenzoquinone; male CD-1 mice
Experimental: The phenylbenzoquinone-induced writhing test in mice was used to measure analgesic activity. The ability of the compounds to inhibit phenylbenzoquinone-induced writhing in mice was measured using the method of Siegmund et al, Proc. Soc. Exp. Biol. Med. 95: 729-731, 1957. Male CD-1 mice (Charles River Laboratories, Wilmington, Mass.) weighing 20-25 g were fasted overnight. Vehicle or compounds were administered by oral gavage 1 hour prior to i.p. injection of 2 mg/kg of phenylbenzoquinone. Five minutes after the i.p. injection of phenylbenzoquinone, the number of writhes in a 5 minute period was counted.

gastric lesion = test: rat gastric lesion test; format: in vivo, rats
Experimental: The rat gastric lesion test, described by Kitagawa et al, J. Phirmacol. Exp. Ther., 253:1133-1137 (1990), and Al-Ghamdi et al, J. Int. Med. Res., 19:2242 (1991), was used to evaluate the activity of compounds to produce gastric lesion. Male Sprague Dawley rats (Charles River Laboratories, Wilmington, Mass.) weighing 230-250 g were used for the experiments. The rats were housed with laboratory chow and water ad libitum prior to the study. The rats were fasted for 24 hours with free access to water and then dosed by oral gavage with vehicle or with test compounds given at a volume of 0.5 mL/100 g. Food was withheld for 18 hours after the initial dosing. Rats were euthanized by CO2 eighteen hours after dosing. The stomachs were dissected along the greater curvature, washed with a directed stream of 0.9% saline and pinned open on a sylgard based petri dish for examination of the hemorrhagic lesion. Gastric lesion score was expressed in mm and calculated by summning the length of each lesion.

[2] = tested on: carrageenan rat paw edema; test: rat paw edema test (antiinflammatory activity); format: in vivo; conditions: ratio of activity relative to the parent NSAID; oral gavage one hour prior to carrageenan; paw volume three hours later; male Sprague-Dawley rats
Experimental: The rat paw edema test was used to measure antiinflammatory activity. The rat paw edema test was performed according to the method of Winter et al, Proc. Soc. Exp. Biol. Med. 111: 544-547, 1962. Male Sprague-Dawley rats (250-275 g) were fasted overnight and dosed by oral gavage with vehicle or suspensions of compound one hour prior to the subplantar injection of 50 μl of 1% suspension of carrageenan. Three hours later, the paw volume was measured and compared with the initial volume measured immediately after carrageenan injection.

[3] = ratio of activity relative to the parent NSAID, oral gavage, fasted rats, eighteen hours after dosing
[4] = 100 μmole/Kg, ratio of activity relative to the parent NSAID, oral gavage, fasted rats, eighteen hours after dosing

Compound	Relative Activity Analgesia [1]	melting point	Relative Activity Gastric Lesion (gastric lesion; [3])	Relative Activity Antiinflammation [2]	Relative Activity Gastric Lesion (gastric lesion; rat, in vivo, po)	Relative Activity Gastric Lesion (gastric lesion; [4])
2-{2-[(2,6-Dichlorophenyl)amino]phenyl}-1-[2-(methyl{[(nitrosothio) cyclohexyl]methyl}amino)ethylthio]ethan-1-one [Example 32]	1					
CN1CCC(CCOC(=O)Cc2ccccc2Nc2c(Cl)cccc2Cl)(SN=O)CC1 (as salt: citrate) [Example 13, 2-[1-Methyl-4-(nitrosothio)-4-piperidyl]ethyl 2-{2-[(2,6-dichlorophenyl)amino]phenyl}acetate citrate]		130 °C				
O=C(O)Cc1ccccc1Nc1c(Cl)cccc1Cl [Diclofenac, diclofenac, reference compound]	1		1	1		
CC1(SN=O)CCN(CCOC(=O)Cc2ccccc2Nc2c(Cl)cccc2Cl)CC1.Cl [Example 1, 2-[4-Methyl-4-(nitrosothio)piperidyl]ethyl 2-{2-[(2,6-dichlorophenyl)amino]phenyl}acetate hydrochloride]	1.5		0.1	1.2		
CN(CCOC(=O)Cc1ccccc1Nc1c(Cl)cccc1Cl)CC1(SN=O)CCCCC1.Cl [Example 2, 2-(Methyl{[(nitrosothio)cyclohexyl]methyl}amino)ethyl 2-{2-[(2,6-dichlorophenyl)amino]phenyl}acetate hydrochloride]	1		0.02	1.2		
CN(CCCOC(=O)Cc1ccccc1Nc1c(Cl)cccc1Cl)CC1(SN=O)CCCCC1 [Example 4, 3-{Methyl{[(nitrosothio)cyclohexyl]methyl}amino)propyl 2-{2-[(2,6-dichlorophenyl)amino]phenyl}acetate]	0.9			1.3	0.01	
Cl.O=NSC1(CCOC(=O)Cc2ccccc2Nc2c(Cl)cccc2Cl)CCNCC1 [Example 6, 2-[4-(Nitrosothio)-4-piperdyl]ethyl 2-{2-[(2,6-dichlorophenyl)amino]phenyl}acetate hydrochloride]			0.02			
CC(C)(CN1CCN(CCOC(=O)Cc2ccccc2Nc2c(Cl)cccc2Cl)CC1)SN=O.O=C(O)CC(O)(CC(=O)O)C(=O)O [Example 8, 2-{4-[2-Methyl-2-(nitrosothio)propyl]piperazinyl}ethyl 2-{2-[(2,6-dichlorophenyl)amino]phenyl}acetate citrate]	1.2		0.04	1.4		
CN1CCC(CN(C)CCCOC(=O)Cc2ccccc2Nc2c(Cl)cccc2Cl)(SN=O)CC1 [Example 12, 3-(Methyl{[1-methyl-4-(nitrosothio)(4-piperidyl)]methyl}amino)propyl 2-{2-[(2,6-dichlorophenyl)amino]pheny}acetate]			0.06			
CN1CCC(CCOC(=O)Cc2ccccc2Nc2c(Cl)cccc2Cl)(SN=O)CC1 [Example 13, 2-[1-Methyl-4-(nitrosothio)-4-piperidyl]ethyl 2-{2-[(2,6-dichlorophenyl)amino]phenyl}acetate citrate]				1		0.1 (100 μmole/Kg)
COc1ccc2cc([C@H](C)C(=O)OCCC3(SN=O)CCN(C)CC3)ccc2c1.O=C(O)CC(O)(CC(=O)O)C(=O)O [Example 15, 2-[1-Methyl-4-(nitrosothio)-4-piperidyl]ethyl (2S) 2-(6-methoxy(2-naphthyl)) propanoate citrate]	1			1		0.1 (100 μmole/Kg)
COc1ccc2c(c1)c(CC(=O)OCCC1(SN=O)CCN(C)CC1)c(C)n2C(=O)c1ccc(Cl)cc1.O=C(O)CC(O)(CC(=O)O)C(=O)O [Example 17, 2-[1-Methyl-4-(nitrosothio)-4-piperidyl]ethyl 2{1-[(4-chlorophenyl)carbonyl]-5-methoxy-2-methylindol-3-yl}acetate citrate]	1					<0.07 (100 μmole/Kg)
COc1ccc2cc([C@H](C)C(=O)OCCN(C)CC3(SN=O)CCN(C)CC3)ccc2c1.Cl [Example 22, 2-(Methyl{[1-methyl-4-(nitrosothio)(4-piperidyl)]methyl}amino)ethyl (2S)-2-(6-methoxy(2-naphthyl))propanoate hydrochloride]	1			1		0.1 (100 μmole/Kg)
CN(CCSC(=O)Cc1ccccc1Nc1c(Cl)cccc1Cl)CC(C)(C)SN=O.Cl [Example 31, 2-{2-[(2,6-Dichlorophenyl)amino]phenyl}-1-(2-{methyl[2-methyl-2-(nitrosothio)propyl]amino}ethylthio)ethan-1-one hydrochloride]	1			1		0.02 (100 μmole/Kg)
CN(Cc1ccc(OC(=O)Cc2ccccc2Nc2c(Cl)cccc2Cl)cc1)CC(C)(C)SN=O [Example 33, 4-({Methyl[2-methyl-2-(nitrosothio)propyl]amino}methyl)phenyl 2-{2-[(2,6-dichlorophenyl)amino]phenyl}acetate]	1			1		
COc1ccc2cc([C@H](C)C(=O)OCCCN3C(=O)OC[C@H]3C(C)(C)SN=O)ccc2c1 [Example 44, 3-{(4S)-4-[1-Methyl-1-(nitrosothio)ethyl]-2-oxo-1,3-oxazolidin-3-yl}propyl (2S)-2-(6-methoxy(2-naphthyl))propanoate]		116 to 117 °C				
COc1ccc2cc([C@H](C)C(=O)OC[C@@H]3NC(=O)[C@@H](C(C)(C)SN=O)NC3=O)ccc2c1 [Example 47, {(2S,5S)-5-[1-Methyl-1-(nitrosothio)ethyl]-3,6-dioxopiperazin-2-yl}methyl (2S)-2-(6-methoxy(2-naphthyl))propanoate]		> 180 °C (dec.)				

From US6593347B2, “Nitrosated and nitrosylated nonsteroidal antiinflammatory compounds, compositions and methods of use” (NitroMed, Inc., priority 1998, dated 2003)
